From ChEMBL document CHEMBL5316290, “Targeted Protein Degradation Induced by HEMTACs Based on HSP90” (J Med Chem, 2023)
Active and inactive are the calls of the source. The calls are words filed in the database; no cut-off is given here.

What was measured:
[1] = biological target: Protein cereblon/Cyclin-dependent kinase 4 (Mus musculus) (UniProt P30285+Q8C7D2); assay: Protac activity at CRBN/CDK4 in mouse B16-F10 cells assessed as induction of CDK4 degradation at 0.05 uM incubated for 24 hrs by Western blot analysis; assay type: cell-based
[2] = biological target: Protein cereblon/Cyclin-dependent kinase 6 (Mus musculus) (UniProt Q8C7D2+Q64261); assay: Protac activity at CRBN/CDK6 in mouse B16-F10 cells assessed as induction of CDK4 degradation at 0.05 uM incubated for 24 hrs by Western blot analysis; assay type: cell-based
A-375 = assay: Cytotoxicity against human A-375 cells assessed as inhibition of cell growth incubated for 72 hrs by CCK-8 assay; assay type: functional, cell-based; details: A-375, 72 h
B16-F10 [3] = assay: Cytotoxicity against mouse B16-F10 cells assessed as inhibition of cell growth incubated for 72 hrs by CCK-8 assay; assay type: functional, cell-based; details: B16-F10, 72 h
[4] = biological target: HSP90/Cyclin-dependent kinase 6 (Mus musculus, UniProt P07901+P11499+Q64261); assay: HEMTAC activity at HSP90/CDK6 in mouse B16-F10 cells assessed as induction of […] degradation incubated for 24 hrs by Western blot analysis; assay type: cell-based
MDA-MB-231 = assay: Cytotoxicity against human MDA-MB-231 cells assessed as inhibition of cell growth incubated for 72 hrs by CCK-8 assay; assay type: functional, cell-based; details: MDA-MB-231, 72 h
HFF-1 = assay: Cytotoxicity against human HFF-1 cells assessed as reduction of cell viability incubated for 72 hrs by CCK-8 assay; assay type: toxicity, cell-based; details: hff-1, 72 h
A549 = assay: Cytotoxicity against human A549 cells assessed as inhibition of cell growth incubated for 72 hrs by CCK-8 assay; assay type: functional, cell-based; details: A549, 72 h
[5] = biological target: HSP90/Cyclin-dependent kinase 4 (Mus musculus, UniProt P07901+P11499+P30285); assay: HEMTAC activity at HSP90/CDK4 in mouse B16-F10 cells assessed as induction of CDK4 degradation incubated for 24 hrs by Western blot analysis; assay type: cell-based
HepG2 = assay: Cytotoxicity against human HepG2 cells assessed as inhibition of cell growth incubated for 72 hrs by CCK-8 assay; assay type: functional, cell-based; details: HepG2, 72 h
[6] = biological target: Heat shock protein HSP 90-alpha (Homo sapiens, UniProt P07900); assay: Binding affinity to CM5 sensor chip immobilized human HSP90alpha assessed as dissociation constant by SPR analysis
B16-F10 [7] = assay: Induction of apoptosis in mouse B16-F10 cells assessed as dead cells at 250 nM incubated for 48 hrs by Annexin V-FITC/PI staining based flow cytometry analysis (reference value: 1.75%); assay type: functional
[8] = Acute toxicity in zebra fish embryos incubated for 72 hrs; parameters: species or system Danio rerio; details: zebrafish
B16-F10 [9] = assay: Induction of apoptosis in mouse B16-F10 cells assessed as early apoptotic cells at 250 nM incubated for 48 hrs by Annexin V-FITC/PI staining based flow cytometry analysis (reference value: 3.42%); assay type: functional
B16-F10 [10] = assay: Induction of cell cycle arrest in mouse B16-F10 cells assessed as accumulation of cells at S phase at 250 nM incubated for 24 hrs by RNase/PI staining based flow cytometry analysis (reference value: 12.45%); assay type: functional
B16-F10 [11] = assay: Induction of cell cycle arrest in mouse B16-F10 cells assessed as accumulation of cells at G2 phase at 250 nM incubated for 24 hrs by RNase/PI staining based flow cytometry analysis (reference value: 16.13%); assay type: functional
B16-F10 [12] = assay: Induction of apoptosis in mouse B16-F10 cells assessed as live cells at 125 nM incubated for 48 hrs by Annexin V-FITC/PI staining based flow cytometry analysis (reference value: 92.85 %); assay type: functional
B16-F10 [13] = assay: Induction of apoptosis in mouse B16-F10 cells assessed as late apoptotic cells at 250 nM incubated for 48 hrs by Annexin V-FITC/PI staining based flow cytometry analysis (reference value: 1.97%); assay type: functional
B16-F10 [14] = assay: Induction of cell cycle arrest in mouse B16-F10 cells assessed as accumulation of cells at G1 phase at 125 nM incubated for 24 hrs by RNase/PI staining based flow cytometry analysis (reference value: 68.89%); assay type: functional
B16-F10 [15] = assay: Induction of apoptosis in mouse B16-F10 cells assessed as live cells at 250 nM incubated for 48 hrs by Annexin V-FITC/PI staining based flow cytometry analysis (reference value: 92.85 %); assay type: functional
B16-F10 [16] = assay: Induction of cell cycle arrest in mouse B16-F10 cells assessed as accumulation of cells at G2 phase at 125 nM incubated for 24 hrs by RNase/PI staining based flow cytometry analysis (reference value: 16.13%); assay type: functional
B16-F10 [17] = assay: Induction of cell cycle arrest in mouse B16-F10 cells assessed as accumulation of cells at G1 phase at 250 nM incubated for 24 hrs by RNase/PI staining based flow cytometry analysis (reference value: 68.89%); assay type: functional
B16-F10 [18] = assay: Induction of apoptosis in mouse B16-F10 cells assessed as dead cells at 125 nM incubated for 48 hrs by Annexin V-FITC/PI staining based flow cytometry analysis (reference value: 1.75%); assay type: functional
B16-F10 [19] = assay: Induction of apoptosis in mouse B16-F10 cells assessed as early apoptotic cells at 125 nM incubated for 48 hrs by Annexin V-FITC/PI staining based flow cytometry analysis (reference value: 3.42%); assay type: functional
B16-F10 [20] = assay: Induction of apoptosis in mouse B16-F10 cells assessed as late apoptotic cells at 125 nM incubated for 48 hrs by Annexin V-FITC/PI staining based flow cytometry analysis (reference value: 1.97%); assay type: functional
B16-F10 [21] = assay: Induction of cell cycle arrest in mouse B16-F10 cells assessed as accumulation of cells at S phase at 125 nM incubated for 24 hrs by RNase/PI staining based flow cytometry analysis (reference value: 12.45%); assay type: functional
[22] = biological target: HSP90/Cyclin-dependent kinase 4 (Mus musculus) (UniProt P30285+P07901+P11499); assay: HEMTAC activity at HSP90/CDK4 in mouse B16-F10 cells assessed as induction of CDK4 degradation at 0.01 to 1 uM measured after 24 hrs by Western blot analysis; assay type: cell-based; details: dose 0.01-1 µM
[23] = biological target: HSP90/Cyclin-dependent kinase 6 (Mus musculus) (UniProt P07901+Q64261+P11499); assay: HEMTAC activity at HSP90/CDK6 in mouse B16-F10 cells assessed as induction of […] degradation at 0.01 to 1 uM measured after 24 hrs by Western blot analysis; assay type: cell-based; details: dose 0.01-1 µM
[24] = Toxicity in C57BL/6J mouse implanted with mouse B16-F10 cells at 20 mg/kg, ip administered once daily for 2 weeks and measured every 2 days; assay type: organism-based; details: in vivo, 336 h

Chain of Protein cereblon/Cyclin-dependent kinase 4 (Mus musculus) (P30285 whole entry, looked up): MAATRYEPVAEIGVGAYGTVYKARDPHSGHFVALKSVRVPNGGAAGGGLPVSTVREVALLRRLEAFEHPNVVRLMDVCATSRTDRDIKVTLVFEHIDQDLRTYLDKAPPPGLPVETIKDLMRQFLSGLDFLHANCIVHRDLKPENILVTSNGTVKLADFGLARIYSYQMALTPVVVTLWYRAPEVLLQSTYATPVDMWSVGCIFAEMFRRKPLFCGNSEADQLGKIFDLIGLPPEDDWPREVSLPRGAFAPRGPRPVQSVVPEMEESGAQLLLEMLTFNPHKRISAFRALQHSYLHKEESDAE
Chain of Protein cereblon/Cyclin-dependent kinase 4 (Mus musculus) (Q8C7D2 whole entry, looked up): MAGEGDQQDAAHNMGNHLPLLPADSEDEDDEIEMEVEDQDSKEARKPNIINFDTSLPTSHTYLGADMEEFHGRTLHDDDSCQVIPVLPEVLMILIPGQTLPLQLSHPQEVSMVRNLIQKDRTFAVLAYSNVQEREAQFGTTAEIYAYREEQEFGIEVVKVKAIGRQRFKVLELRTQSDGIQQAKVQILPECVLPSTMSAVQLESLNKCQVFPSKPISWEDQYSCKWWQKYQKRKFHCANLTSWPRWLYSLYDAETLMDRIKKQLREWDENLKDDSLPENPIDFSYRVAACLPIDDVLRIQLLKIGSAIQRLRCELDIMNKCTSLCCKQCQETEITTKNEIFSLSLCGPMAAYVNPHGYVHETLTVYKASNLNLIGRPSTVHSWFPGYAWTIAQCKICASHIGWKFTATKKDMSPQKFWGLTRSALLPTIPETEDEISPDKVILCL

| Compound | EC50 [4] | EC50 [5] | Kd [6] | IC50 (A-375) | IC50 (B16-F10 [3]) | IC50 (MDA-MB-231) | Activity (HFF-1) | IC50 (A549) | IC50 (HepG2) | further results |
| --- | --- | --- | --- | --- | --- | --- | --- | --- | --- | --- |
| CC(=O)c1c(C)c2cnc(Nc3ccc(N4CCN(CCCCNC(=O)COc5cccc6c5C(=O)N(C5CCC(=O)NC5=O)C6=O)CC4)cn3)nc2n(C2CCCC2)c1=O (configuration not stated) |  |  |  |  |  |  |  |  |  | Activity [1]: Active; Activity [2]: Active |
| COc1c(C)cnc(Cn2cc(C#CCCn3cc(C(=O)NCCOCCOCCNC(=O)CN4CCN(c5ccc(Nc6ncc7c(C)c(C(C)=O)c(=O)n(C8CCCC8)c7n6)nc5)CC4)nn3)c3c(Cl)nc(N)nc32)c1C | 245 nM | 268 nM | 18.7 nM | 1840 nM | 1000 nM | 1140 nM | Non-Toxic | 3550 nM | 2540 nM |  |
| CC(=O)c1c(C)c2cnc(Nc3ccc(N4CCNCC4)cn3)nc2n(C2CCCC2)c1=O [PALBOCICLIB] |  |  |  | > 10000 nM | > 10000 nM | > 10000 nM | Non-Toxic | > 10000 nM | > 10000 nM | Activity (B16-F10 [7]): 2.84%; LC50 at 72 h [8]: > 100000 nM; Activity (B16-F10 [9]): 2.53%; Activity (B16-F10 [10]): 9.98%; Activity (B16-F10 [11]): 15.63%; Activity (B16-F10 [12]): 86.8%; Activity (B16-F10 [13]): 5.51%; Activity (B16-F10 [14]): 72.84%; Activity (B16-F10 [15]): 89.12%; Activity (B16-F10 [16]): 13.57%; Activity (B16-F10 [17]): 74.4%; Activity (B16-F10 [18]): 5.34%; Activity (B16-F10 [19]): 2.55%; Activity (B16-F10 [20]): 5.31%; Activity (B16-F10 [21]): 13.29% |
| COc1c(C)cnc(Cn2cc(C#CCCn3cc(CNC(=O)CN4CCN(c5ccc(Nc6ncc7c(C)c(C(C)=O)c(=O)n(C8CCCC8)c7n6)nc5)CC4)nn3)c3c(Cl)nc(NC(C)=O)nc32)c1C |  |  |  |  |  |  |  |  |  | Activity [22]: inactive; Activity [23]: inactive |
| COc1c(C)cnc(Cn2cnc3c(Cl)nc(N)nc32)c1C [BIIB021] |  |  |  | 253 nM | 176 nM | 339 nM | Toxic | 134 nM | 113 nM | Activity (B16-F10 [7]): 2.26%; LC50 at 72 h [8]: < 1000 nM; Activity (B16-F10 [9]): 16.92%; Activity (B16-F10 [10]): 2.62%; Activity (B16-F10 [11]): 18.95%; Activity (B16-F10 [12]): 78.06%; Activity (B16-F10 [13]): 12.55%; Activity (B16-F10 [14]): 73.13%; Activity (B16-F10 [15]): 68.27%; Activity (B16-F10 [16]): 14.09%; Activity (B16-F10 [17]): 77.76%; Activity (B16-F10 [18]): 2.03%; Activity (B16-F10 [19]): 13.64%; Activity (B16-F10 [20]): 6.27%; Activity (B16-F10 [21]): 12.26%; Activity [24]: Non-Toxic |

Further lines, with some results ahead:

| EC50 [4] | EC50 [5] | Kd [6] | Compound | IC50 (A-375) | IC50 (B16-F10 [3]) | IC50 (MDA-MB-231) | Activity (HFF-1) | IC50 (A549) | IC50 (HepG2) | further results |
| --- | --- | --- | --- | --- | --- | --- | --- | --- | --- | --- |
| 325 nM | 446 nM | 67.5 nM | COc1c(C)cnc(Cn2cc(C#CCCn3cc(C(=O)NCCNC(=O)CN4CCN(c5ccc(Nc6ncc7c(C)c(C(C)=O)c(=O)n(C8CCCC8)c7n6)nc5)CC4)nn3)c3c(Cl)nc(N)nc32)c1C | 7640 nM | 6820 nM | 3630 nM | Non-Toxic | > 10000 nM | > 10000 nM |  |
| 478 nM | > 500 nM | 306 nM | COc1c(C)cnc(Cn2cc(C#CCCn3cc(C(=O)NCCOCCNC(=O)CN4CCN(c5ccc(Nc6ncc7c(C)c(C(C)=O)c(=O)n(C8CCCC8)c7n6)nc5)CC4)nn3)c3c(Cl)nc(N)nc32)c1C | 6340 nM | 7880 nM | 1850 nM | Non-Toxic | 8890 nM | 3760 nM |  |
| 88 nM | 96 nM | 8.39 nM | COc1c(C)cnc(Cn2cc(C#CCCNC(=O)CN3CCN(c4ccc(Nc5ncc6c(C)c(C(C)=O)c(=O)n(C7CCCC7)c6n5)nc4)CC3)c3c(Cl)nc(N)nc32)c1C | 906 nM | 821 nM | > 10000 nM | Non-Toxic | 607 nM | 547 nM |  |
| 105 nM | 110 nM | 460 nM | COc1c(C)cnc(Cn2cc(C#CCCn3cc(C(=O)N4CCN(c5ccc(Nc6ncc7c(C)c(C(C)=O)c(=O)n(C8CCCC8)c7n6)nc5)CC4)nn3)c3c(Cl)nc(N)nc32)c1C | 293 nM | 546 nM | > 10000 nM | Non-Toxic | 2440 nM | 1710 nM |  |
